Key:
[1] = biological target: T1, Acyl-CoA:cholesterol acyltransferase (Oryctolagus cuniculus, UniProt Q95214); assay: Compound was evaluated for inhibitory activity against Acyl coenzyme A:cholesterol acyltransferase in microsomes from rabbit adrenal.
T1 sequence (Q95214 whole entry): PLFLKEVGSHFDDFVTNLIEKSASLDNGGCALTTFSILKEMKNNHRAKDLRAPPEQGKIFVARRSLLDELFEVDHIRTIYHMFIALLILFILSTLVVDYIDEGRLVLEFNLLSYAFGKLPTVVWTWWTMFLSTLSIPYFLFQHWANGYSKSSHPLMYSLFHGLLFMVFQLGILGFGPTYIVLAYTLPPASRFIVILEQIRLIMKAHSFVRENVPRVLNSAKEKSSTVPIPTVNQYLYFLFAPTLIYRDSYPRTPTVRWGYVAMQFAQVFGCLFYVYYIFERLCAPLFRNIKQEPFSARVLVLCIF

[2] = biological target: T1, Acyl-CoA:cholesterol acyltransferase; assay: Compound was evaluated for inhibitory activity against Acyl coenzyme A:cholesterol acyltransferase in microsomes from rabbit artery.
[3] = biological target: T1, Acyl-CoA:cholesterol acyltransferase; assay: Compound was evaluated for inhibitory activity against Acyl coenzyme A:cholesterol acyltransferase in microsomes from rabbit intestine.
[4] = biological target: T1, Acyl-CoA:cholesterol acyltransferase; assay: Compound was evaluated for inhibitory activity against Acyl coenzyme A:cholesterol acyltransferase in microsomes from rabbit liver.

IC50 [1]: 0.208 µM | IC50 [2]: 0.245 µM | IC50 [3]: 0.37 µM | IC50 [4]: 0.122 µM
Compound: Cc1cc(C)n(CCCCC[S+]([O-])c2nc(-c3ccccc3)c(-c3ccccc3)[nH]2)n1 (centres undefined)
